Laboratory results taken from ChEMBL document CHEMBL5150014, “Discovery and Development of Dolastatin 10-Derived Antibody Drug Conjugate Anticancer Drugs” (J Nat Prod, 2022).
Starred links: 1 amine or outer side, 2 acyl side, 3 side chain; linkers in the order of their positions; H or OH if unused. Non-standard residues stand in square brackets, D forms with d. Residues, ends and D or L forms follow the SMILES beside them. *: point of attachment. Dolaproine(4S-N3) = CO[C@H]([C@@H](C)C(=O)[*:2])[C@@H]1C[C@H](N=[N+]=[N-])CN1[*:1]; X2 = CO[C@H]([C@@H](C)C(=O)[*:2])[C@@H]1C[C@@H]2C[C@@H]2N1[*:1]; NMeVal(N-(CH2)3COOH) = CC(C)[C@@H](C(=O)*)N(C)CCCC(=O)O; Dolaproine = CO[C@@H]([C@@H]1CCCN1)[C@@H](C)C(=O)O; Abu(3S-N3) = C[C@H](N=[N+]=[N-])[C@H](N)C(=O)O; Dil = CC[C@H](C)[C@H](NC)[C@@H](CC(=O)O)OC; Phe(2-Cl) = N[C@@H](Cc1ccccc1Cl)C(=O)O; Phe(2-F) = N[C@@H](Cc1ccccc1F)C(=O)O; NMe2Val = CC(C)[C@@H](C(=O)*)N(C)C; Oxazinan2yl(1,2) = C1CCN(*)OC1; X4 = C1=C[C@H]2CC[C@@H]1N(*)O2; NMeV = CN[C@H](C(=O)O)C(C)C; NHOH = ON*

What was measured:
BT-474 = assay: Anticancer activity against human BT-474 assessed as cell growth inhibition incubated for 4 days by WST-8 assay; format: functional; conditions: BT-474, 96 h, time 4 day
L1210 = assay: Cytotoxicity against mouse L1210 cells assessed as cell growth inhibition measured after 24 hrs; format: functional, cell-based; conditions: L1210, 24 h
MOLM-13 = assay: Cytotoxicity against human MOLM-13 cells assessed as cell growth inhibition; format: functional, cell-based
H3396 = assay: Cytotoxicity against human H3396 cells assessed as cell growth inhibition; format: functional, cell-based
SK-BR-3 = assay: Cytotoxicity against human SK-BR-3 cells assessed as cell growth inhibition incubated for 72 hrs by CellTiter-Glo assay; format: functional
KARPAS-299 = assay: Cytotoxicity against human KARPAS-299 cells assessed as reduction in cell viability incubated for 5 days by Presto blue dye based assay; format: functional; conditions: KARPAS-299, 120 h
[1] = system: Panel NCI-60 (60 carcinoma cell lines); assay: Cytotoxicity against human Panel NCI-60 (60 carcinoma cell lines) assessed as cell growth inhibition; format: functional, cell-based
HT-29 = assay: Cytotoxicity against human HT-29 cells assessed as cell growth inhibition; format: functional, cell-based

CC[C@H](C)[C@@H]([C@@H](CC(=O)N1CC(=O)C[C@H]1[C@H](OC)[C@@H](C)C(=O)NCCc1ccccc1)OC)N(C)C(=O)[C@@H](NC(=O)[C@H](C(C)C)N(C)C)C(C)C
GI50 (BT-474): 5.23 nM

CC[C@H](C)[C@@H]([C@@H](CC(=O)N1CCC[C@H]1[C@@H](OC)[C@@H](C)C(=O)N[C@@H](Cc1ccccc1)c1nccs1)OC)N(C)C(=O)[C@@H](NC(=O)[C@H](C(C)C)N(C)C)C(C)C
IC50 (L1210): > 10000 nM

CC[C@H](C)[C@@H]([C@@H](CC(=O)N1C[C@@H](N=[N+]=[N-])C[C@H]1[C@H](OC)[C@@H](C)C(=O)N[C@@H](Cc1ccccc1)C(=O)OC)OC)N(C)C(=O)[C@@H](NC(=O)[C@@H](NC)C(C)C)C(C)C (H-[NMeV]V[Dil][Dolaproine(4S-N3)]F-OMe)
GI50 (MOLM-13): 0.224 nM

CC[C@H](C)[C@@H]([C@@H](CC(=O)N1CCC[C@H]1[C@H](OC)[C@@H](C)C(=O)N[C@@H](Cc1ccccc1)C(=O)OC)OC)N(C)C(=O)[C@@H](NC(=O)[C@@H](NC)C(C)C)C(C)C (H-[NMeV]V[Dil][Dolaproine]F-OMe)
IC50 (H3396): < 0.001 nM

CC[C@H](C)[C@@H]([C@@H](CC(=O)N1CCC[C@H]1[C@H](OC)[C@@H](C)C(=O)N[C@@H](Cc1ccccc1F)C(=O)O)OC)N(C)C(=O)[C@@H](NC(=O)[C@@H](NC)C(C)C)C(C)C (H-[NMeV]V[Dil][Dolaproine][Phe(2-F)]-OH)
GI50 (SK-BR-3): 81.6 nM

CC[C@H](C)[C@@H]([C@@H](CC(=O)N1[C@H]2C[C@H]2C[C@H]1[C@H](OC)[C@@H](C)C(=O)N[C@@H](Cc1ccccc1Cl)C(=O)O)OC)N(C)C(=O)[C@@H](NC(=O)[C@@H](NC)C(C)C)C(C)C (H-[NMeV]V[Dil][X2][Phe(2-Cl)]-OH)
GI50 (SK-BR-3): 1.06 nM

CC[C@H](C)[C@@H]([C@@H](CC(=O)N1C[C@@H](N=[N+]=[N-])C[C@H]1[C@H](OC)[C@@H](C)C(=O)N[C@@H](Cc1ccccc1)C(=O)OC)OC)N(C)C(=O)[C@@H](NC(=O)[C@@H](NC)C(C)C)[C@H](C)N=[N+]=[N-] (H-[NMeV][Abu(3S-N3)][Dil][Dolaproine(4S-N3)]F-OMe)
GI50 (MOLM-13): 0.279 nM

CC[C@H](C)[C@@H]([C@@H](CC(=O)N1CCC[C@H]1[C@H](OC)[C@@H](C)C(=O)N[C@@H](Cc1ccccc1)C(N)=O)OC)N(C)C(=O)[C@@H](NC(=O)[C@@H](NC)C(C)C)[C@H](C)N=[N+]=[N-] (H-[NMeV][Abu(3S-N3)][Dil][Dolaproine]F-NH2)
IC50 (KARPAS-299): 0.6 nM

CC[C@H](C)[C@@H]([C@@H](CC(=O)N1[C@H]2C[C@H]2C[C@H]1[C@H](OC)[C@@H](C)C(=O)N[C@@H](Cc1ccccc1)C(=O)O)OC)N(C)C(=O)[C@@H](NC(=O)[C@@H](NC)C(C)C)C(C)C (HELM PEPTIDE1{[meV].V.[CC[C@H](C)[C@@H]([C@@H](CC(=O)[*:2])OC)N(C)[*:1]].[CO[C@H]([C@@H](C)C(=O)[*:2])[C@@H]1C[C@@H]2C[C@@H]2N1[*:1]].F}$$$$V2.0)
GI50 (SK-BR-3): 1.11 nM

CC[C@H](C)[C@@H]([C@@H](CC(=O)N1C[C@@H](F)C[C@H]1[C@H](OC)[C@@H](C)C(=O)N[C@@H](Cc1ccccc1)C(=O)O)OC)N(C)C(=O)[C@@H](NC(=O)[C@@H](NC)C(C)C)C(C)C (HELM PEPTIDE1{[meV].V.[CC[C@H](C)[C@@H]([C@@H](CC(=O)[*:2])OC)N(C)[*:1]].[CO[C@H]([C@@H](C)C(=O)[*:2])[C@@H]1C[C@H](F)CN1[*:1]].F}$$$$V2.0)
GI50 (SK-BR-3): 81.7 nM

CC[C@H](C)[C@@H]([C@@H](CC(=O)N1CCC[C@H]1[C@H](OC)[C@@H](C)C(=O)N[C@@H](Cc1ccccc1)C(=O)O)OC)N(C)C(=O)[C@@H](NC(=O)[C@H](C(C)C)N(C)C)C(C)C (NMe2Val-V[Dil][Dolaproine]F-OH)
IC50 [1]: 105 nM

CC[C@H](C)[C@@H]([C@@H](CC(=O)N1CCC[C@H]1[C@H](OC)[C@@H](C)C(=O)N[C@@H](Cc1ccccc1)C(=O)OC)OC)N(C)C(=O)[C@@H](NC(=O)[C@H](C(C)C)N(C)C)C(C)C (NMe2Val-V[Dil][Dolaproine]F-OMe)
GI50 [1]: 0.2 nM

CC[C@H](C)[C@@H]([C@@H](CC(=O)N1CCC[C@H]1[C@H](OC)[C@@H](C)C(=O)N[C@@H](Cc1ccccc1)C(=O)N1O[C@H]2C=C[C@@H]1CC2)OC)N(C)C(=O)[C@@H](NC(=O)[C@H](C(C)C)N(C)C)C(C)C (NMe2Val-V[Dil][Dolaproine]F-X4)
IC50 (HT-29): 0.5 nM

CC[C@H](C)[C@@H]([C@@H](CC(=O)N1CCC[C@H]1[C@H](OC)[C@@H](C)C(=O)N[C@@H](CC(C)C)C(=O)NO)OC)N(C)C(=O)[C@@H](NC(=O)[C@H](C(C)C)N(C)C)C(C)C (NMe2Val-V[Dil][Dolaproine]L-{NHOH})
GI50 (SK-BR-3): 3 nM

CC[C@H](C)[C@@H]([C@@H](CC(=O)N1CCC[C@H]1[C@H](OC)[C@@H](C)C(=O)N[C@@H](Cc1c[nH]c2ccccc12)C(=O)N1CCCCO1)OC)N(C)C(=O)[C@@H](NC(=O)[C@H](C(C)C)N(C)C)C(C)C (NMe2Val-V[Dil][Dolaproine]W-{Oxazinan2yl(1,2)})
IC50 (HT-29): 0.5 nM

CC[C@H](C)[C@@H]([C@@H](CC(=O)N1CCC[C@H]1[C@H](OC)[C@@H](C)C(=O)N[C@@H](Cc1c[nH]c2ccccc12)C(N)=O)OC)N(C)C(=O)[C@@H](NC(=O)[C@H](C(C)C)N(C)CCCC(=O)O)C(C)C ({NMeVal(N-(CH2)3COOH)}-V[Dil][Dolaproine]W-NH2)
IC50 (HT-29): 16 nM

CC[C@H](C)[C@@H]([C@@H](CC(=O)N1CCC[C@H]1[C@H](OC)[C@@H](C)C(=O)NCCc1ccccc1)OC)N(C)C(=O)[C@@H](NC(=O)[C@H](C(C)C)N(C)C)C(C)C [SOBLIDOTIN]
GI50 [1]: 0.49 nM
